Series [1] has as its system anti-inflammatory cytokines IL-4 and IL-10. The series is described as follows: RT-PCR of blood in defective Achilles tendon model: anti-inflammatory cytokines. To be noted: 4 weeks. It counts as in vivo, mice.
Series [2] deals with defective Achilles tendon model. In words: Biomechanical test of Achilles tendon (stiffness, tensile strength). In kind it is in vivo, rats.
Series [3] shares this test system. The series is described as follows: Hydroxyproline content analysis of tendon tissue. It counts as in vivo, mouse. On the procedure: All experiments using mice were conducted in compliance with the relevant laws and institutional guidelines of the Institutional Animal Care and Use Committee (IACUC) of Korea University Medical Center and received IACUC approval (Approval No. KOREA-2018-0049). […] […] 1 mg) and […] […] To hydrolyze the tendon tissue, 5 mg was immersed in a 6N HCl solution and then heated at 120° C. for 3 hours. After hydrolysis, the tendon tissue was centrifuged at 3000 rpm for 3 minutes, and the supernatant was collected and transferred to a 96-well plate. Thereafter, the 96-well plate was incubated in a dry oven at 60° C. for 12 hours. A Chloramine T reagent (6 μL) was mixed with an oxidation buffer (94 μL), and the mixture was added to each sample or a standard solution. The resulting solution was slowly transferred to a 96-well plate, and a p-dimethylaminobenzaldehyde reagent (100 μL) was added to each sample or standard, and then incubated at 60° C. for 90 minutes. The hydroxyproline content was measured at an optical density of […] using a Flash Multimode Reader (VarioskanTM, Thermo Scientific, USA).

The conditions of series [4]: cited from earlier work.
The conditions of series [5]: in vivo; cited from earlier work.

Like-named read-outs stand apart in the source and are kept apart here.

Regarding `Cc1ccc(-c2cc(C(F)(F)F)nn2-c2ccc(S(N)(=O)=O)cc2)cc1` [CXB, Celecoxib], the “IL-4 expression increase compared with control group” value in series [1] (treated once) was 1.2 fold; in series [1] (treated three times) it was 1.3 fold. Moreover, the “IL-10 expression increase compared with control group” value in series [1] (treated once) is 1.3 fold; in series [1] (treated three times), 1.5 fold. Besides, the stiffness in series [2] (injected once per week) is 16.4 N/mm; in series [2] (injected three times per week), 18.6 N/mm. In series [2] (injected once per week), this compound gave a tensile strength of 12.5 MPa. In addition, the hydroxyproline content in series [3] (injected once per week) is 15.3 µg/mg; in series [3] (injected three times per week), 17.2 µg/mg.

In general, half-life refers to the time needed for the level to fall by half in the phase considered. On to `O=C(O)Cc1ccccc1Nc1c(Cl)cccc1Cl` [diclofenac], for which the half-life in series [4] (direct IA administration, reported by Larsen et al.) was 5.2 h.

As for `CC1(C)O[C@@H]2C[C@H]3[C@@H]4CCC5=CC(=O)C=C[C@]5(C)[C@@]4(F)[C@@H](O)C[C@]3(C)[C@]2(C(=O)CO)O1` [TCA, triamcinolone acetonide], the half-life in series [4] (in vivo) was 1.47 h. The “half-life of TCA without a delivery carrier” value in series [5] is 1.27 h.

(Values after US20260248920A1, “COMPOSITION FOR PREVENTING OR TREATING INFLAMMATORY DISEASES, CONTAINING POLY(ORGANOPHOSPHAZENE) POLYMER” (KOREA INSTITUTE OF SCIENCE AND TECHNOLOGY, priority 2022, published 2026).)
